Results as given in PubChem BioAssay (NCI).
Values joined by “and” are separate entries in the source; they are usually repeats but may differ in a detail not shown here. Equal values may be shown once.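 Step 1: Grow cells in 96-well plates. Step 2: Expose to compound for 48 hours at 5 concentrations. Step 3: Interpolate endpoints linearly; if unreached, use highest concentration. GI50: concentration for 50% inhibition of growth. TGI: concentration producing complete growth inhibition.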

What was measured:
Experiment in all cases: NCI anticancer screen, dose series, 48 h
SW-620 colon = test system: SW-620 colon
SK-OV-3 ovarian = test system: SK-OV-3 ovarian
PC-3 prostate = test system: PC-3 prostate
SF-268 CNS = test system: SF-268 CNS
SNB-75 CNS = test system: SNB-75 CNS
RPMI-8226 leukemia = test system: RPMI-8226 leukemia
NCI-H226 lung = test system: NCI-H226 lung
T-47D breast = test system: T-47D breast
OVCAR-5 ovarian = test system: OVCAR-5 ovarian
RXF 393 renal = test system: RXF 393 renal

| Compound | GI50 (SW-620 colon) [µM] | TGI (SW-620 colon) [µM] | GI50 (SK-OV-3 ovarian) [µM] | TGI (SK-OV-3 ovarian) [µM] | GI50 (PC-3 prostate) [µM] | TGI (PC-3 prostate) [µM] | GI50 (SF-268 CNS) [µM] | TGI (SF-268 CNS) [µM] | GI50 (SNB-75 CNS) [µM] | TGI (SNB-75 CNS) [µM] | GI50 (RPMI-8226 leukemia) [µM] | TGI (RPMI-8226 leukemia) [µM] | GI50 (NCI-H226 lung) [µM] | TGI (NCI-H226 lung) | GI50 (T-47D breast) [µM] | TGI (T-47D breast) [µM] | GI50 (OVCAR-5 ovarian) [µM] | TGI (OVCAR-5 ovarian) | TGI (RXF 393 renal) [µM] | GI50 (RXF 393 renal) [µM] |
| --- | --- | --- | --- | --- | --- | --- | --- | --- | --- | --- | --- | --- | --- | --- | --- | --- | --- | --- | --- | --- |
| Cc1cc(NCCCN(C)C)c2ccc3c(ccc4c(NCCCN(C)C)cc(C)nc43)c2n1 | 0.185 | 0.493 | 0.23 | 0.507 | 0.199 | 0.609 | 0.176 | 0.393 | 0.165 | 0.42 | 0.0489 | 0.147 | 0.215 | 0.88 µM | 0.521 | 2.54 | 0.246 | 0.909 µM | – | – |
| O=S(=O)(/C=C/c1ccc(F)cc1)Cc1ccc(CS(=O)(=O)/C=C/c2ccc(F)cc2)cc1 | – | > 100 | – | > 100 | – | – | – | > 100 | – | > 100 | – | > 100 | – | > 100 µM | – | – | – | > 100 µM | > 100 | – |
| C=C1CC2OC(=O)C(=C)C2C(O)C2C(=C)CCC12 (stereo not given) | – | 13.8 | – | 24.9 | – | – | – | 32.3 | – | 21.5 | – | 14.3 | – | 35.5 µM | – | – | – | 24.7 µM | 17.7 | – |
| COc1ccc2c(c1)C(=O)c1ccc(OC)cc1C2=S | – | > 100 | – | > 100 | – | – | – | > 100 | – | 87.4 | – | > 100 | – | > 100 µM | – | – | – | > 100 µM | > 100 | – |
| NNC(=O)C1CCC(=O)N1S(=O)(=O)c1ccccc1 (stereo not given) | – | > 100 | – | > 100 | – | – | – | > 100 | – | > 100 | – | > 100 | – | > 100 µM | – | – | – | > 100 µM | > 100 | – |
| O=C1C(c2ccccc2)=C(O)c2cccc3cccc1c23 | – | > 100 | – | > 100 | – | – | – | > 100 | – | > 100 | – | > 100 | – | > 100 µM | – | – | – | > 100 µM | > 100 | – |
| O=C1CCCCC1S(=O)(=O)c1ccccc1 (stereo not given) | – | > 100 | – | > 100 | – | – | – | > 100 | – | > 100 | – | > 100 | – | > 100 µM | – | – | – | > 100 µM | > 100 | – |
| COc1cc(OC)c(C/C=C/c2ccccc2)cc1O | – | 38 | – | – | – | 35.6 | – | 34.4 | – | 33.9 | – | 38 | – | 33.8 µM | – | 23.7 | – | 69.9 µM | – | – |
| OC(CCNC12CC3CC(CC(C3)C1)C2)c1ccccc1 (stereo not given) | – | > 100 | – | > 100 | – | – | – | > 100 | – | > 100 | – | – | – | > 100 µM | – | – | – | > 100 µM | > 100 | – |
| CC(=O)[CH-]C(=O)c1ccccc1.CC(=O)[CH-]C(=O)c1ccccc1.CC[O-].CC[O-].[Hf+4] | > 100 | > 100 | > 100 | > 100 | – | – | > 100 | > 100 | > 100 | > 100 | > 100 | > 100 | > 100 | > 100 µM | – | – | > 100 | > 100 µM | > 100 | > 100 |
| COc1ccc(/C=C/c2cc(OC)c(OC)c(OC)c2)cc1 | – | > 100 | – | > 94.6 | – | – | – | > 85.3 | – | > 21.7 | – | 12.3 | – | > 87.7 µM | – | – | – | > 100 µM | 2.62 | – |
| CC[C@@]1(O)C(=O)OCc2c1cc1n(c2=O)Cc2cc3cc4c(cc3nc2-1)OCO4 | – | 3.18 | < 0.0324 | – | – | > 100 | – | – | – | – | – | – | – | 0.00616 µM and < 0.0387 µM | – | 0.427 | – | 0.122 µM and 0.0372 µM | 0.0831 | < 0.0267 |
| NC(=O)CN(CC(N)=O)C(N)=O | – | > 100 | – | > 100 | – | – | – | > 100 | – | > 100 | – | > 100 | – | > 100 µM | – | – | – | > 100 µM | > 100 | – |
| O=C(O)CC[C@H](NC(=O)c1ccc(-n2nc3ccc(O)cc3nc2=O)cc1)C(=O)O | – | > 100 | – | – | – | – | – | > 100 | – | – | – | > 100 | – | – | – | – | – | > 100 µM | > 100 | – |
| COc1c(O)c2c3c(cc(C)cc3c1C(C)C)OC2 | – | > 100 | – | > 100 | – | – | – | > 100 | – | > 100 | – | > 100 | – | > 100 µM | – | – | – | > 100 µM | > 100 | – |
| O=C1C=CC(=O)C2=C1[C@@H](O)C1CC=CC3C(=O)O[C@@H]2C31 (stereo not given in full) | – | 57 | – | > 100 | – | – | – | > 70.6 | – | 50.7 | – | 57.7 | – | > 75.1 µM | – | – | – | > 100 µM | 33.9 | – |
| COc1cc2ccnc3c2c(c1OC)-c1coc(SC)c1-3 | – | > 100 | – | > 100 | – | – | – | > 100 | – | 79.3 | – | > 100 | – | – | – | – | – | > 100 µM | 52.1 | – |
| C=C1C(O)C2C(=C(CC)C13CC3)C(=O)C(C)(C)C2OC (stereo not given) | 59.9 | > 100 | > 100 | > 100 | 35.2 | > 100 | > 100 | > 100 | – | – | 20.6 | 68 | – | – | > 100 | > 100 | > 100 | > 100 µM | > 100 | > 100 |
| Cc1nc(Nc2ccccc2)sc1C(=O)CC(=O)C(=O)Nc1c(C(C)C)cccc1C(C)C | – | > 100 | – | > 100 | – | – | – | > 100 | – | – | – | – | – | > 100 µM | – | – | – | > 100 µM | > 100 | – |
| C/C(=N/NC(=S)N1CCCCC1)c1ccccc1O | – | > 31.6 | – | > 31.6 | – | > 31.6 | – | > 31.6 | – | – | – | > 31.6 | – | > 31.6 µM | – | > 31.6 | – | > 31.6 µM | > 31.6 | – |
| CCOc1cc2c(C(=O)CC)c(O)ccc2o1 | – | > 100 | – | > 93.6 | – | – | – | > 100 | – | > 100 | – | > 100 | – | > 100 µM | – | – | – | > 100 µM | > 95.7 | – |
| CCOC(C[C@H](O[Si](C)(C)C(C)(C)C)[C@H]1COC(=S)S1)OCC | – | > 100 | – | – | – | – | – | > 100 | – | – | – | > 100 | – | > 100 µM | – | – | – | – | – | – |
| NC(=O)N/N=C1/CCC(O)CC1CC(=O)O (stereo not given) | – | > 100 | – | > 100 | – | > 100 | – | > 100 | – | – | – | > 100 | – | > 100 µM | – | > 100 | – | > 100 µM | > 100 | – |
| CCCCCCC[CH2][Sn]([CH2]CCCCCCC)([O]c1cccc2cccnc12)[O]c1cccc2cccnc12 | 0.391 | 1.89 | – | – | – | – | 2.68 | 10.7 | 2.74 | 9.53 | 0.625 | 2.84 | 2.24 | 5.53 µM | – | – | 3.02 | 8.21 µM | 8.07 | 2.06 |
